Holding throughout (assay): DTP human tumour cell line panel, 48 h
In assay [1] the test system is SN12C renal.
Assay [2] has as its system CCRF-CEM leukemia.
In assay [3] the test system is A549 NSCLC.
The test system of assay [4] is IGROV1 ovarian.
The test system of assay [5] is MDA-MB-435.
Assay [6] concerns COLO 205 colon.
In assay [7] the test system is SF-539 CNS.
For assay [8], the system named is SF-295 CNS.
For assay [9], the system named is NCI-H23 lung.
The subject of assay [10] is UACC-257 melanoma.

Molecules are shown by their SMILES.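 Interpolation was linear, between the two tested concentrations surrounding the appropriate level; five concentrations were tested over 48 hours in 96-well plates. GI50 = concentration required for 50% inhibition of growth. TGI denotes the concentration required for complete inhibition of growth.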

As to `Cn1c(CC(O)c2nc3ccccc3n2C)nc2ccccc21` (stereo not given), the TGI was above 57.9 µM in assay [1]; 17.3 µM in assay [2]; above 100 µM in assay [3]; above 40.6 µM in [4]; above 44.4 µM in assay [5]; above 35.8 µM in assay [6]. Further, the TGI in assay [7] is above 56 µM; in assay [8], above 100 µM; in assay [9], above 48.6 µM; in assay [10], above 47.8 µM.

With `C=CC(C)(O)CCC1C(=C)C(O)CC2C(C)(C)CCCC12C` (stereo not given), the TGI worked out at 33 µM in assay [1]; 45.4 µM in [2]; 54.9 µM in assay [3]; 52.2 µM in assay [4]; 41.8 µM in [5]; 29.4 µM in assay [6]. The TGI in assay [7] was found to be 31.7 µM; in [8] it was 48 µM; in assay [9], 38.3 µM; in assay [10], 39 µM.

As to `Cc1ccc(O)cc1Nc1ccnc2cc(-c3ccccn3)ccc12`, the GI50 in [1] was 2.46 µM; in assay [2] it was 4.86 µM; in [3], 3.8 µM; in assay [4], 0.502 µM; in assay [5], 1.98 µM; in assay [6], 3.92 µM. In addition, the GI50 in assay [7] is 3.08 µM; in [8], 3.12 µM; in assay [9], 3.59 µM; in assay [10], 3.09 µM. The TGI in [1] turned out to be 7.51 µM; in assay [2] it was 15 µM; in assay [3] it was 8.39 µM; in assay [4], 2.13 µM; in [5], 5.65 µM; in [6], 7.34 µM. Besides, the TGI is 6.68 µM in [7], 6.89 µM in assay [8], 10.9 µM in assay [9] and 6.25 µM in assay [10].

As to `Cc1cc(-c2ccco2)cc(C)c1/C=C/c1cncc(-c2nn[nH]n2)c1`, the GI50 in assay [1], in [2], in assay [3], in assay [4], in [5] and in assay [6] was above 25 µM throughout. Further, the GI50 in assay [7], in assay [8], in assay [9] and in assay [10] was above 25 µM in each case. For the same molecule, the TGI in assay [1], in assay [2], in assay [3], in assay [4], in [5] and in assay [6] was above 25 µM each time. Besides, the TGI in assay [7], in assay [8], in assay [9] and in [10] was above 25 µM in each case.

For the molecule `Cc1cn2c(/C=C3/C(=O)Nc4ccc(C(=O)O)cc43)c(C)nc2s1`, the GI50 in [1], in assay [2], in [3], in assay [4], in assay [5] and in [6] was above 100 µM throughout. Besides, the GI50 in [7], in [8], in assay [9] and in [10] was above 100 µM each time. In addition, the TGI in [1], in [2], in assay [3], in [4], in assay [5] and in assay [6] was above 100 µM each time. For the same molecule, the TGI in assay [7], in assay [8], in assay [9] and in [10] was above 100 µM each time.

As to `COc1cc2c(cc1OC)C(SC)C(=O)N(Cc1cccc(OC)c1OC)CC2` (stereo not given), the TGI in assay [1] was above 100 µM; in assay [2] it was above 55.6 µM; in assay [3], above 82.7 µM; in assay [4] it was above 90.8 µM; in [5], 8.36 µM; in [6], 16.9 µM. In addition, the TGI in [7] was 9.13 µM; in [8], above 43.6 µM; in assay [9] it was 18.2 µM; in assay [10] it was 32.2 µM.

`CCC1=C(c2ccc(OC)cc2)CC[C@]2(CCNC2=O)[C@@H]1C`: the TGI in [1] was above 96.3 µM; in [2], 60.8 µM; in assay [3] it was above 100 µM; in assay [4], above 100 µM; in assay [5], 47.2 µM; in assay [6], 19.9 µM. Besides, the TGI is 54.8 µM in assay [7], above 100 µM in [8], above 100 µM in assay [9] and 79.1 µM in [10].

For the molecule `CCOC(=O)C1=C(C)N(Cc2ccc(Cl)cc2Cl)[C@]2(C#N)C(O)=C(Cl)C(Cl)=C(O)[C@]12C#N`, the GI50 in assay [1] is 73.9 µM; in [2] it was 18.4 µM; in assay [3], above 100 µM; in [4], above 100 µM; in assay [5] it was above 100 µM; in assay [6], above 100 µM. The GI50 in assay [7] was 14.2 µM; in [8], above 100 µM; in assay [9] it was 16.3 µM; in assay [10], above 100 µM. Further, the concentration for total growth inhibition (TGI) in assay [1] was above 100 µM; in [2] it was 37.3 µM; in assay [3], above 100 µM; in assay [4], above 100 µM; in [5] it was above 100 µM; in assay [6], above 100 µM. The TGI in assay [7] was 33.1 µM; in assay [8] it was above 100 µM; in assay [9], 80.4 µM; in [10] it was above 100 µM.

The TGI is the concentration at which net growth stops. A high value points to less potent growth arrest. The GI50 is the concentration giving 50% growth inhibition.

For the origin of these results see PubChem BioAssay (NCI).
